The term MIC denotes the least concentration at which growth counts as inhibited. Low readings indicate a more susceptible organism, high ones a less susceptible organism.

This experiment concerns Ruminococcus sp. The experiment is described as follows: Antimicrobial activity against Ruminococcus sp. CCRI-16110 containing vanD-like gene by agar dilution method. Type of experiment: functional. On the technique in general: In agar dilution the substance is mixed into plates at graded concentrations.

Some results are limits rather than exact numbers.

For the compound `CN[C@H](CC(C)C)C(=O)N[C@H]1C(=O)N[C@@H](CC(N)=O)C(=O)N[C@H]2C(=O)N[C@H]3C(=O)N[C@H](C(=O)N[C@H](C(=O)O)c4cc(O)cc(O)c4-c4cc3ccc4O)[C@H](O)c3ccc(c(Cl)c3)Oc3cc2cc(c3O[C@@H]2O[C@H](CO)[C@@H](O)[C@H](O)[C@H]2O[C@H]2C[C@](C)(N)[C@H](O)[C@H](C)O2)Oc2ccc(cc2Cl)[C@H]1O` [VANCOMYCIN], the minimum inhibitory concentration (MIC) was > 256 µg/mL.
Then `Cc1ncc([N+](=O)[O-])n1CCO` [METRONIDAZOLE], with < 0.125 µg/mL.

The record behind these values is ChEMBL document CHEMBL1137647, “vanD and vanG-like gene clusters in a Ruminococcus species isolated from human bowel flora” (2007).
